The record followed here is patent US10273222B2 (CELGENE QUANTICEL RESEARCH, INC., priority 2013, dated 2019).

pIC50: −log10 of the molar value.

As a reminder, the pIC50 is the negative decadic logarithm of the IC50, by convention in mol/L. A lower pIC50 goes with a high IC50.

Holding throughout (format): biochemical
For one assay, the target named is JMJD2C (Homo sapiens (Human), UniProt Q9H3R0). Nature of the assay: JMJD2C in vitro enzyme inhibition assay (TR-FRET). In general terms: TR-FRET usually uses a lanthanide donor and a delayed reading to cut background.
Chain of JMJD2C (Q9H3R0 2-372): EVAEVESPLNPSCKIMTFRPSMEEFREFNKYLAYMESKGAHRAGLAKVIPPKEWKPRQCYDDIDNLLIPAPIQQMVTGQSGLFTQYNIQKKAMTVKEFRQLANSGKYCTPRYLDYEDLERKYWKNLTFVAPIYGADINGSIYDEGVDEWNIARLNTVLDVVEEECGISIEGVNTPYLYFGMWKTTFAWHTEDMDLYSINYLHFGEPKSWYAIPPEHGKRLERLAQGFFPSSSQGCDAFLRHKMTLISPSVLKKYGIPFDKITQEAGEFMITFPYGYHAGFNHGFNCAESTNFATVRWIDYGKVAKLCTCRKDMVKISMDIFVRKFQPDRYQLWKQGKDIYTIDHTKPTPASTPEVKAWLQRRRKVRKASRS
Another assay deals with Jarid1B (Homo sapiens (Human), UniProt Q9UGL1). Nature of the assay: Jarid1B in vitro enzyme inhibition assay (TR-FRET).
Chain of Jarid1B (Q9UGL1 2-751): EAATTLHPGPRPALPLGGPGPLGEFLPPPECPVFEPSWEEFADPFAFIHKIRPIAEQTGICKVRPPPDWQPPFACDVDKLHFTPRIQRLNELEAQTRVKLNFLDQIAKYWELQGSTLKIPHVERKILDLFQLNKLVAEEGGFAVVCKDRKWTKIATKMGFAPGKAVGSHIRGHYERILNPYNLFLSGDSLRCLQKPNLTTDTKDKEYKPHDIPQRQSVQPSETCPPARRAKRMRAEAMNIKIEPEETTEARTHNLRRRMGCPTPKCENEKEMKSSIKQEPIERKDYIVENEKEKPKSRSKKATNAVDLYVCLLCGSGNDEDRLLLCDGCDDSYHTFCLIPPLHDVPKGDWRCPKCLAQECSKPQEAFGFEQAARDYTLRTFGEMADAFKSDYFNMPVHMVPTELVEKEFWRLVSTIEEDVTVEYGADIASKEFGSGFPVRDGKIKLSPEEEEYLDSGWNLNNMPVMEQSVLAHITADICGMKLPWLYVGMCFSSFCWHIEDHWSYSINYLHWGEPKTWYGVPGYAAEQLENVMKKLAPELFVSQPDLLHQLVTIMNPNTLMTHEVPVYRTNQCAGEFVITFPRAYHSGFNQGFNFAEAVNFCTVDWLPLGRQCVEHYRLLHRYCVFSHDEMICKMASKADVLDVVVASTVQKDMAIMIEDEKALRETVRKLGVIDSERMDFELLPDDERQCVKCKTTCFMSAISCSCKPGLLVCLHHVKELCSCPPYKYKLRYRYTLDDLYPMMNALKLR
The target in the next assay is Jarid1A (Homo sapiens (Human), UniProt P29375). Nature of the assay: Jarid1A in vitro enzyme inhibition assay (TR-FRET). The text has this: The enzymatic assay of Jarid1A activity is based upon Time Resolved-Fluorescence Resonance Energy Transfer (TR-FRET) detection.
Chain of Jarid1A (P29375 1-1090): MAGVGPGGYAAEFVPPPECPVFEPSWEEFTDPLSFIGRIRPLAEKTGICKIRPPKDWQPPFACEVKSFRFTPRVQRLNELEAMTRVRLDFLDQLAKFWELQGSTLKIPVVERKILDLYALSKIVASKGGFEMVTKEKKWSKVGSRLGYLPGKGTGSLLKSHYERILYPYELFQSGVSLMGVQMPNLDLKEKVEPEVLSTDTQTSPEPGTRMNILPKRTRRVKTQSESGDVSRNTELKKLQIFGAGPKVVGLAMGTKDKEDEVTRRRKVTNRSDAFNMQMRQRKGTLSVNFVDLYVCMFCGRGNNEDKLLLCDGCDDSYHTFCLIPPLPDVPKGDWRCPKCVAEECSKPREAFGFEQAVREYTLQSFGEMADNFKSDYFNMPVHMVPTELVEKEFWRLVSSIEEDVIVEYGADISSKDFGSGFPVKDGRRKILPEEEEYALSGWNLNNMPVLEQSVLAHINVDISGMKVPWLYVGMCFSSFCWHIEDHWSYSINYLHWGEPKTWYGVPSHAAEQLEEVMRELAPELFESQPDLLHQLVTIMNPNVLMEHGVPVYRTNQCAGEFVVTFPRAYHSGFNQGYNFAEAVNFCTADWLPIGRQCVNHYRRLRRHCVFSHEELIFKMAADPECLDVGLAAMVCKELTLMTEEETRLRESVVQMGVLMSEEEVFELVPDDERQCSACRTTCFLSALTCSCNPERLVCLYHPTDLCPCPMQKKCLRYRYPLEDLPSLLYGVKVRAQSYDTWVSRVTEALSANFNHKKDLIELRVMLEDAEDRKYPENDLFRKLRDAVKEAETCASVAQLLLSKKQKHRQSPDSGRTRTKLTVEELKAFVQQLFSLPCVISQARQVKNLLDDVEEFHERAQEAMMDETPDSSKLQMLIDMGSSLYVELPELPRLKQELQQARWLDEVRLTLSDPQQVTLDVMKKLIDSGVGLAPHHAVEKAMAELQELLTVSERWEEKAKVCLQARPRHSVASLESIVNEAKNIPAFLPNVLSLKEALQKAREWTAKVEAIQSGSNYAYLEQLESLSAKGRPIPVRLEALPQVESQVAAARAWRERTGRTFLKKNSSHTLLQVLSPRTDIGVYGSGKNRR
A further assay has as its target FBXL10 (Homo sapiens (Human), UniProt Q8NHM5). In words: FBXL10 in vitro enzyme inhibition assay (AlphaScreen). As for the experimental part: Reaction product was determined quantitatively by AlphaScreen detection after the addition of detection reagents anti-H3K36me1 antibody, AlphaScreen® Streptavidin-coated Donor beads, and AlphaScreen® Protein A Acceptor beads in 50 mM HEPES, pH7.3, 10 mM NaCl, 0.005% Brij35, 5 mM EDTA, 2 mg/ml BSA to final 10 μg/ml beads.
Plates were incubated at room temperature for 40 minutes, followed by addition of 3 μl of 50 μg/ml AlphaScreen® Streptavidin-coated Donor beads and AlphaScreen® Protein A Acceptor beads in 50 mM HEPES, pH7.3, 10 mM NaCl, 0.005% Brij35, 5 mM EDTA, 2 mg/ml BSA. Plates were read by EnVisionMultilabel Reader in AlphaScreen mode after a minimum of 2 hour or up to overnight incubation at room temperature. The AlphaScreen signal for each well was used to determine inhibition constant (IC50).
(In general: Bead proximity is the source of the signal in Alpha formats.)

Chain of FBXL10 (Q8NHM5 1-650): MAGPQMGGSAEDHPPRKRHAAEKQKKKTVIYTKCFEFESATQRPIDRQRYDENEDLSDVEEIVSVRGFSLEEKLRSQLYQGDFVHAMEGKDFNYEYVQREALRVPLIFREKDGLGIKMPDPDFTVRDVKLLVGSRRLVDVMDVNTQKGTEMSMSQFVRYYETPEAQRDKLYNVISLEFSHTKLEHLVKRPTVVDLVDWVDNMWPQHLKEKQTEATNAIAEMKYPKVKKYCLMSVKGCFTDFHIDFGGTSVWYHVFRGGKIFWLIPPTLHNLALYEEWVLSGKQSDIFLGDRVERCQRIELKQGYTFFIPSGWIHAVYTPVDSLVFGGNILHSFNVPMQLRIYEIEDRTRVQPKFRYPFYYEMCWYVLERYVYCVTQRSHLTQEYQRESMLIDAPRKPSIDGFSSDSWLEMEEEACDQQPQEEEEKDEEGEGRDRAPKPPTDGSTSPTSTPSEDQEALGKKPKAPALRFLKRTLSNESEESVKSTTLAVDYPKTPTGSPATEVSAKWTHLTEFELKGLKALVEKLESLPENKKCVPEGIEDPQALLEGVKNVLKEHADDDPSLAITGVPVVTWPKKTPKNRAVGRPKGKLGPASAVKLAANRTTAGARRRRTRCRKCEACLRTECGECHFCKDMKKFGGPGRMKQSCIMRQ

In the case of `COc1ccc(CCn2cnc(-c3cc(C(=O)O)ccn3)c2)cc1` [Example 94, 2-[1-[2-(4-methoxyphenyl)ethyl]imidazol-4-yl]pyridine-4-carboxylic acid], the negative logarithm of the IC50 (pIC50) at JMJD2C, against Jarid1B and against Jarid1A was at least 7.00 throughout.

`O=C(O)c1ccnc(-c2cn(CCN3CCOCC3)cn2)c1` [Example 45, 2-{1-[2-(morpholin-4-yl)ethyl]-1H-imidazol-4-yl}pyridine-4-carboxylic acid]: the figures for the pIC50 against JMJD2C, against Jarid1B and against Jarid1A were below 5.00, 6.00 to 7.00 and 5.00 to 6.00, respectively.

For `CN(C)CCCn1cnc(-c2cc(C(=O)O)ccn2)c1` [Example 42, 2-{1-[3-(dimethylamino)propyl]-1H-imidazol-4-yl}pyridine-4-carboxylic acid], the pIC50 at JMJD2C, against Jarid1B and against Jarid1A was at least 7.00 each time.

In the case of `Cn1cnc(-c2cc(-c3nn[nH]n3)ccn2)c1-c1ccc(F)c(C(=O)NCc2ccccc2)c1` [Example 65, N-benzyl-2-fluoro-5-[3-methyl-5-[4-(2H-tetrazol-5-yl)pyridin-2-yl]imidazol-4-yl]benzamide], the figures for the pIC50 on JMJD2C and at FBXL10 were 5.00 to 6.00 and at least 7.00, respectively.

Regarding `CC(C)(C)C(=O)OCn1nnc(-c2ccnc(-c3cn(Cc4ccccc4Cl)cn3)c2)n1` [Example 166, (5-(2-(1-(2-chlorobenzyl)-1H-imidazol-4-yl)pyridin-4-yl)-2H-tetrazol-2-yl)methyl pivalate], the pIC50 against JMJD2C and against FBXL10 was 5.00 to 6.00 each time.

For `Cn1cnc(-c2cc(-c3nn[nH]n3)ccn2)c1-c1ccc(F)c(O)c1` [Example 162, 2-fluoro-5-[3-methyl-5-[4-(2H-tetrazol-5-yl)pyridin-2-yl]imidazol-4-yl]phenol], the negative-log IC50 (pIC50) against JMJD2C is 5.00 to 6.00; on FBXL10, at least 7.00.

On to `CC(C)(C)C(=O)OCn1nnc(-c2ccnc(-c3ncn(Cc4ccccc4Cl)c3-c3ccc(F)cc3)c2)n1` [Example 139, [5-[2-[1-[(2-chlorophenyl)methyl]-5-(4-fluorophenyl)imidazol-4-yl]pyridin-4-yl]tetrazol-2-yl]methyl 2,2-dimethylpropanoate], for which the negative-log IC50 (pIC50) against JMJD2C and on FBXL10 was 5.00 to 6.00 in each case.

Regarding `Cn1cnc(-c2cc(C(=O)O)ccn2)c1-c1cc(F)c(F)cc1OCC1CC1` [Example 121, 2-[5-[2-(cyclopropylmethoxy)-4,5-difluorophenyl]-1-methylimidazol-4-yl]pyridine-4-carboxylic acid], the negative-log IC50 (pIC50) on JMJD2C was 5.00 to 6.00; on FBXL10, at least 7.00.

For the compound `Cn1cnc(-c2cc(-c3nn[nH]n3)ccn2)c1-c1ccc(F)c(C(=O)Nc2ccccc2)c1` [Example 163, 2-fluoro-5-[3-methyl-5-[4-(2H-tetrazol-5-yl)pyridin-2-yl]imidazol-4-yl]-N-phenylbenzamide], the negative-log IC50 (pIC50) against JMJD2C is 5.00 to 6.00; at FBXL10 it was 6.00 to 7.00.

In the case of `Clc1ccc(-c2c(-c3cc(-c4nn[nH]n4)ccn3)ncn2CC2CC2)cc1` [Example 136, 2-[5-(4-chlorophenyl)-1-(cyclopropylmethyl)imidazol-4-yl]-4-(2H-tetrazol-5-yl)pyridine], the pIC50 at JMJD2C was 5.00 to 6.00; at FBXL10 it was at least 7.00.

Regarding `Fc1ccc(-c2c(-c3cc(-c4nn[nH]n4)ccn3)ncn2Cc2ccccc2Cl)cc1` [Example 137, 2-[1-[(2-chlorophenyl)methyl]-5-(4-fluorophenyl)imidazol-4-yl]-4-(2H-tetrazol-5-yl)pyridine], the pIC50 against JMJD2C is 5.00 to 6.00; against FBXL10 it was at least 7.00.

In the case of `c1ccc2c(c1)CC(Cn1cnc(-c3cc(-c4nn[nH]n4)ccn3)c1)C2` [Example 147, 2-[1-(2,3-dihydro-1H-inden-2-ylmethyl)imidazol-4-yl]-4-(2H-tetrazol-5-yl)pyridine], the results for the pIC50 at JMJD2C and against FBXL10 were 5.00 to 6.00 and at least 7.00, respectively.

Consider `O=C(O)c1ccnc(-c2ncn(CC3CC3)c2-c2ccc(F)cc2)c1` [Example 125, 2-[1-(cyclopropylmethyl)-5-(4-fluorophenyl)imidazol-4-yl]pyridine-4-carboxylic acid], for which the negative-log IC50 (pIC50) is 6.00 to 7.00 against JMJD2C and at least 7.00 against FBXL10.
